Data on three compounds can be found in PMC6437697 (Journal of Medicinal Chemistry, 2019).

What all share (assay): KINOMEscan
Common to all, as to type: binding
Conditions in all cases: read-out: % control activity remaining

One assay deals with T1, AXL (Homo sapiens, UniProt P30530).
T1 construct: purchased Eurofins DiscoverX KINOMEscan
T1 sequence (P30530 26-894): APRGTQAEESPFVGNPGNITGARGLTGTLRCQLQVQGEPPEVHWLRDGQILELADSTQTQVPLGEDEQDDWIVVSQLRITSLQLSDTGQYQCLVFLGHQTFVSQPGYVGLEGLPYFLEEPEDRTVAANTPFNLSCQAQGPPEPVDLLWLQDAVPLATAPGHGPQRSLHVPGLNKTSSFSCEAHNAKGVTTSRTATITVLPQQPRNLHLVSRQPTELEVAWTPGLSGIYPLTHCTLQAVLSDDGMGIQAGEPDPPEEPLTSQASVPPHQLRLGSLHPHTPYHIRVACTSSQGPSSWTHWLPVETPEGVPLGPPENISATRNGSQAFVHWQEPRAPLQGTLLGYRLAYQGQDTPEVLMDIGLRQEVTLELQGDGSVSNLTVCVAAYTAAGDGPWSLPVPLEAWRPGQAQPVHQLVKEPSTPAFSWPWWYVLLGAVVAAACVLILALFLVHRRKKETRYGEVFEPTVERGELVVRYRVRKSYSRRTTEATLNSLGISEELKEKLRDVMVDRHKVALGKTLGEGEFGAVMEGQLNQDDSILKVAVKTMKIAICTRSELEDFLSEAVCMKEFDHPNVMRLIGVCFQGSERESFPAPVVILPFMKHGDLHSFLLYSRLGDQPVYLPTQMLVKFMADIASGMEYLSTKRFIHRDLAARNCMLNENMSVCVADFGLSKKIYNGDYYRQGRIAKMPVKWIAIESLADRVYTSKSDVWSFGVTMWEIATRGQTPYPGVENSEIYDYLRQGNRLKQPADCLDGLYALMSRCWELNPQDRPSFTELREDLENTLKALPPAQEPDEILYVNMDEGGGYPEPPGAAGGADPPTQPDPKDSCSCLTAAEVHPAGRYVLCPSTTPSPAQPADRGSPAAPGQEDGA

The next assay deals with T2, EPHA4 (Homo sapiens, UniProt P54764).
T2 construct: purchased Eurofins DiscoverX KINOMEscan
T2 sequence (P54764 20-986): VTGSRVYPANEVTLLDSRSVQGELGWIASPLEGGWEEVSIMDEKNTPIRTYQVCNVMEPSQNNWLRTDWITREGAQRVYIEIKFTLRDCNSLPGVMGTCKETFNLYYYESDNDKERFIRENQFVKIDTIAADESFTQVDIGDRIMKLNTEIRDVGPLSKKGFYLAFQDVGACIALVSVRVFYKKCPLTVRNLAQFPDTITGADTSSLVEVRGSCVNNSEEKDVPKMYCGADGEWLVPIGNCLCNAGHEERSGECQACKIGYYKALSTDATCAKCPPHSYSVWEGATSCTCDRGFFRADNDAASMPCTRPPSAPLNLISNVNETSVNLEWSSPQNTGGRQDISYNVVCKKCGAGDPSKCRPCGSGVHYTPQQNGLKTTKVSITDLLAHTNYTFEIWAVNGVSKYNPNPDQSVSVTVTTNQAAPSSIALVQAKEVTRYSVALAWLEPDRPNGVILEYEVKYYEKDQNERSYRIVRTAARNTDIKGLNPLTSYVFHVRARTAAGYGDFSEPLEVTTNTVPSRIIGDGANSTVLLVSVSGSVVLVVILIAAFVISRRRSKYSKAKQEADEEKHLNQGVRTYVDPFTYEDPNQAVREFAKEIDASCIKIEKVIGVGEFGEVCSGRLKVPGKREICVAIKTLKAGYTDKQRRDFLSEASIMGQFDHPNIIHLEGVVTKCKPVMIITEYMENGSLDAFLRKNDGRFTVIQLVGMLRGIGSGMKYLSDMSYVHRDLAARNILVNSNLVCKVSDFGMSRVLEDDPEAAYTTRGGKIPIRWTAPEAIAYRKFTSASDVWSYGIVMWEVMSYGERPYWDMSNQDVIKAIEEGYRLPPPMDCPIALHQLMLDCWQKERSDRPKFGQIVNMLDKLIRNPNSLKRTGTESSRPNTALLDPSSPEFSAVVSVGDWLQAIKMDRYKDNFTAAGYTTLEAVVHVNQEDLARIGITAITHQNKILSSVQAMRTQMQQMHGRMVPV

Another assay concerns the target T3, EPHA7 (Homo sapiens, UniProt Q15375).
T3 construct: purchased Eurofins DiscoverX KINOMEscan

For the next assay, the target named is T4, FLT3(R834Q) (Homo sapiens, UniProt P36888, R834Q).
T4 construct: purchased Eurofins DiscoverX KINOMEscan
T4 sequence (P36888 27-993 R834Q): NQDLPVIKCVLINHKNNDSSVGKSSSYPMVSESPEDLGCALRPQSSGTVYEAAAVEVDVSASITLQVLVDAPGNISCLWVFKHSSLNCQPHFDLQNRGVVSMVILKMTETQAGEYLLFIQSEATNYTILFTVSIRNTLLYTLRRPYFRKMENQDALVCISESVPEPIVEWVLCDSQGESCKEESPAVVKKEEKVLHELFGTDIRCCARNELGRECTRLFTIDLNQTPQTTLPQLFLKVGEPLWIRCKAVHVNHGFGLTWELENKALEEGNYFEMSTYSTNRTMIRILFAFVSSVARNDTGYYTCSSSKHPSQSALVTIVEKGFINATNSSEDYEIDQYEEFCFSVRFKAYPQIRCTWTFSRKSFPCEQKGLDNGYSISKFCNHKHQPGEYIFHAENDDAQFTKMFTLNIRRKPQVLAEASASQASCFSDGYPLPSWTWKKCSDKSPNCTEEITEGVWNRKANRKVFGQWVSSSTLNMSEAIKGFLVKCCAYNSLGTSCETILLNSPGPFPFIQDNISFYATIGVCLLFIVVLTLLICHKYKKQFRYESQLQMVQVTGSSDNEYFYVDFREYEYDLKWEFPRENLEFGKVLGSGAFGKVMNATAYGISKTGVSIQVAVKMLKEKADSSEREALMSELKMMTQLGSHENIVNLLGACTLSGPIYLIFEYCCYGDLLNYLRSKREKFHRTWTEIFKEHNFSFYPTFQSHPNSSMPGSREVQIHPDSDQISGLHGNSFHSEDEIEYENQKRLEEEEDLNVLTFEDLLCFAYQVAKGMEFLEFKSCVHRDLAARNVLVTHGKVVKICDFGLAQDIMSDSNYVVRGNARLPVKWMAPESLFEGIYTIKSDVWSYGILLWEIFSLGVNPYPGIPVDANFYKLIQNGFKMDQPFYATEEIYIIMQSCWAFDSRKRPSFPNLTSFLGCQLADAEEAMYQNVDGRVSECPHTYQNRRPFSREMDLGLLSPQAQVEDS

A further assay deals with T5, MEK2 (Homo sapiens, UniProt P36507).
T5 construct: purchased Eurofins DiscoverX KINOMEscan
T5 sequence (P36507 whole entry): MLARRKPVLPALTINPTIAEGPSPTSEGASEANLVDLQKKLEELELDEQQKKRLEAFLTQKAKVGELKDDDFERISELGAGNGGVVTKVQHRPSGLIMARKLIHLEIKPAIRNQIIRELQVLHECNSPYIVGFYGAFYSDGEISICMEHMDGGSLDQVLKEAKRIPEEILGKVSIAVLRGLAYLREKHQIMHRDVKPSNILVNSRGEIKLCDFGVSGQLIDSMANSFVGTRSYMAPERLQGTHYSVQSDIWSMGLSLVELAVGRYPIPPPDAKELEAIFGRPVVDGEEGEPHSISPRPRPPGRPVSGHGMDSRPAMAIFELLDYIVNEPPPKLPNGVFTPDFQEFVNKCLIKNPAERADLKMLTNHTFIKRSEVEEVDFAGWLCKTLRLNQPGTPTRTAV

For another assay, the target named is T6, p38-beta (Homo sapiens, UniProt Q15759).
T6 construct: purchased Eurofins DiscoverX KINOMEscan
T6 sequence (Q15759 whole entry): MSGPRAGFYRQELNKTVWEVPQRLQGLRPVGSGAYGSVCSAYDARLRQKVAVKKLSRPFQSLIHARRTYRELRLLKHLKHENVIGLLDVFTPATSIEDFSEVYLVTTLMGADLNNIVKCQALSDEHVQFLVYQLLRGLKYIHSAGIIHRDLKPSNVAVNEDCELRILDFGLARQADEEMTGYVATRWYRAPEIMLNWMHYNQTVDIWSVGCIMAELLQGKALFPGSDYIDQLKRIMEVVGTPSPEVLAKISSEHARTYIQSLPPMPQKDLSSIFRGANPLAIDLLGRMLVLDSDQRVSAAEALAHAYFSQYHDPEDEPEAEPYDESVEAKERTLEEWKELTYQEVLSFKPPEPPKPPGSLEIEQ

The target of the next assay is T7, RIOK3 (Homo sapiens, UniProt O14730).
T7 construct: purchased Eurofins DiscoverX KINOMEscan
T7 sequence (O14730 1-519): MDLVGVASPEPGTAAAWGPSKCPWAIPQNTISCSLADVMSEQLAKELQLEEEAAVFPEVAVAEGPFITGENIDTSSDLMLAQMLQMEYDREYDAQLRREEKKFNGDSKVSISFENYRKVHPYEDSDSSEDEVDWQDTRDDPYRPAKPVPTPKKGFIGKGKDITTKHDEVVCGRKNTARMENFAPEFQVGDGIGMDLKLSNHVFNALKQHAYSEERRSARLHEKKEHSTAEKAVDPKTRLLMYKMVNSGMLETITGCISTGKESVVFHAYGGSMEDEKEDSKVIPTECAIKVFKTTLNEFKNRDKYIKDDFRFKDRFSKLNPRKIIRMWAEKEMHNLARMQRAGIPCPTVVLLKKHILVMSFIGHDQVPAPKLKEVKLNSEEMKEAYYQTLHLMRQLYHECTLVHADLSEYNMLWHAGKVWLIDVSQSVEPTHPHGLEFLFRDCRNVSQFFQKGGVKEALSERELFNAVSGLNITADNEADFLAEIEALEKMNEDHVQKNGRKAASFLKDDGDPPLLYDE

The target in a further assay is T8, ROCK2 (Homo sapiens, UniProt O75116).
T8 construct: purchased Eurofins DiscoverX KINOMEscan
T8 sequence (O75116 whole entry): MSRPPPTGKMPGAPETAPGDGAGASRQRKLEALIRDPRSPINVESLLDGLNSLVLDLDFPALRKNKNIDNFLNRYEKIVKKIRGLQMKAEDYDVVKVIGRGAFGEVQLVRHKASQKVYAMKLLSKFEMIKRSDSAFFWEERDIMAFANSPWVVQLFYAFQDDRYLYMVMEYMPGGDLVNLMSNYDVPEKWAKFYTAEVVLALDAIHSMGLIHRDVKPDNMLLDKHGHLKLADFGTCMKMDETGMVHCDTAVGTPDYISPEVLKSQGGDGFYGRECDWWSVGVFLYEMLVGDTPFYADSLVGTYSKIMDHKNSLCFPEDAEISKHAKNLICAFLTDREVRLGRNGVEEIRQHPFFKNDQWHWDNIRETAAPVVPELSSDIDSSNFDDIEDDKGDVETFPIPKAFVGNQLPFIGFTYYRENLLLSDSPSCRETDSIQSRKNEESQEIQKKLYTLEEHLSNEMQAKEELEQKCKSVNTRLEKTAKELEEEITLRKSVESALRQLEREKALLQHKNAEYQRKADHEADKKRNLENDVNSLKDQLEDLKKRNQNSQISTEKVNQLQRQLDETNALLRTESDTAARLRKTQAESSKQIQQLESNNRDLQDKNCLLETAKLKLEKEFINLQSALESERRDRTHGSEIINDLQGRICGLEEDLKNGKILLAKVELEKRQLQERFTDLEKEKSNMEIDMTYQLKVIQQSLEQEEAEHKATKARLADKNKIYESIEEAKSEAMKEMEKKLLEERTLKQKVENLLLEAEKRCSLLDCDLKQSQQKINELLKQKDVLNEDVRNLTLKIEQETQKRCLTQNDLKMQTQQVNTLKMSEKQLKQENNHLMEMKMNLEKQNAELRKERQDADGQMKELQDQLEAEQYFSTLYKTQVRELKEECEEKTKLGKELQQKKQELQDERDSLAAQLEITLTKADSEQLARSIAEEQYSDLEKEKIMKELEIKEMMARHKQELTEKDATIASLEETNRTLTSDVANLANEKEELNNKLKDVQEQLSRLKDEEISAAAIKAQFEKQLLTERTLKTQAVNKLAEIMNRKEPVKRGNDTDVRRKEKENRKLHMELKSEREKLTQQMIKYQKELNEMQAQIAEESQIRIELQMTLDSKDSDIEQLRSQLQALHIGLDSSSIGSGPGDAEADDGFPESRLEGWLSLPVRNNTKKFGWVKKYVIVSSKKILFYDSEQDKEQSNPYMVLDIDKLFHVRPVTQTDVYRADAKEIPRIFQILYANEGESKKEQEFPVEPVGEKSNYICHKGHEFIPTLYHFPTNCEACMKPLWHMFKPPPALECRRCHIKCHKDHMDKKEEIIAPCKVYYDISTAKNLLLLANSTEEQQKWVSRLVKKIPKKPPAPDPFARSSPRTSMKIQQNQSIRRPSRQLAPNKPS

The target of the next assay is T9, TNK2 (Homo sapiens, UniProt Q07912).
T9 construct: purchased Eurofins DiscoverX KINOMEscan
T9 sequence (Q07912 whole entry): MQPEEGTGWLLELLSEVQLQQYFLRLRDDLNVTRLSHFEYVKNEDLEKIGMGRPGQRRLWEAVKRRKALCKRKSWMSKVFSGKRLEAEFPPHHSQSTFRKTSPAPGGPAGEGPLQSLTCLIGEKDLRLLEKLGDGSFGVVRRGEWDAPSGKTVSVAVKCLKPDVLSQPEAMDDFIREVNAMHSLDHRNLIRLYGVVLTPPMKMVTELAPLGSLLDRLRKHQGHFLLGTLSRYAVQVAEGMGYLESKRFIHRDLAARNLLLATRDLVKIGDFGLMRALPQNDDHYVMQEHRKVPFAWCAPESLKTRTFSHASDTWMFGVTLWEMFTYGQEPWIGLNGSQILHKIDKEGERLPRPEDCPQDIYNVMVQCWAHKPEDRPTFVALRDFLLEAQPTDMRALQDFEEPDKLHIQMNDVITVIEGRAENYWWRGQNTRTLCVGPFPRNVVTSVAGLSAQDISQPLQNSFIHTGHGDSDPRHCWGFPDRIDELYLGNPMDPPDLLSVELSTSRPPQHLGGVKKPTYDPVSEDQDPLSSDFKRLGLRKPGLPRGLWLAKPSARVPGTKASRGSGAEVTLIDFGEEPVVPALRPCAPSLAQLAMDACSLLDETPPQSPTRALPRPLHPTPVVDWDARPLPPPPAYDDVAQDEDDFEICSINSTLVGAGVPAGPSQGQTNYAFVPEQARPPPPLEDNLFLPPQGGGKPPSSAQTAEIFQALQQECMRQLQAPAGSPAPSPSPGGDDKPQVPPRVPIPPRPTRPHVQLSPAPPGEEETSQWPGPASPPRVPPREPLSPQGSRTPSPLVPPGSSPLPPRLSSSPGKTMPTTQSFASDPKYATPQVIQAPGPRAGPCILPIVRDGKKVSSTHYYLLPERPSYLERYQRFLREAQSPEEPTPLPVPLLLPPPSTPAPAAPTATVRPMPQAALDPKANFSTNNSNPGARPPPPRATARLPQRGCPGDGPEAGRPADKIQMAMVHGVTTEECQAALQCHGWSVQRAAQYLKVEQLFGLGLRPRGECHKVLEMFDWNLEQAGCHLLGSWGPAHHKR

Another assay concerns the target T10, TRKB (Homo sapiens, UniProt Q16620).
T10 construct: purchased Eurofins DiscoverX KINOMEscan

Structures are written as SMILES.

T10 sequence (Q16620 32-822): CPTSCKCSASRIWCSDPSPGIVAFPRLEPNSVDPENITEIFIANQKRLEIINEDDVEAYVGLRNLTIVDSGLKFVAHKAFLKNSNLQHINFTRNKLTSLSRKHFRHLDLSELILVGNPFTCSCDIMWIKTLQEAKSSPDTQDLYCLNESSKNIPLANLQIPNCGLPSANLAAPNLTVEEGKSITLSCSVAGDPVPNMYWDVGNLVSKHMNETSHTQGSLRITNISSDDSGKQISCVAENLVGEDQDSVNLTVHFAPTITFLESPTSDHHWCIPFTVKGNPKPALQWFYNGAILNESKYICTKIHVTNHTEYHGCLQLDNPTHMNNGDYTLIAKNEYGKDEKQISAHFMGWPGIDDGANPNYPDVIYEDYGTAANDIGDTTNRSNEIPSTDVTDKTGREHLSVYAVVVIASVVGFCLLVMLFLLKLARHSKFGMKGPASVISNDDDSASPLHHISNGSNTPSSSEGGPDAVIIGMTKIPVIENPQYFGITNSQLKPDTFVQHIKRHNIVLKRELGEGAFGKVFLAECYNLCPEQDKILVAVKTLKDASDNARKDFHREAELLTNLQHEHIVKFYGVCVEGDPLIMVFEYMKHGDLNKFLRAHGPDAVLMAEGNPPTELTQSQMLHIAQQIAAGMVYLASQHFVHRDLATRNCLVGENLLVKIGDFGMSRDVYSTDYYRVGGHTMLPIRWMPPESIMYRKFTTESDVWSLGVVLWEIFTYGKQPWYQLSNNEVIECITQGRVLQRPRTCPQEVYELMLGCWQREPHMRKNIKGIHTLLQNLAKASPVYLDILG

In the case of `Clc1cc(NCC2CC2)c2ncc(-c3ccc4[nH]ncc4c3)n2n1` [compound 2, 6-Chloro-N-(cyclopropylmethyl)-3-(1H-indazol-5-yl)imidazo[1,2-b]pyridazin-8-amine], the remaining binding at 1 µM came to 84% on AXL; 84% at EPHA4; 94% at EPHA7; 94% on FLT3(R834Q); 92% at MEK2; 94% on p38-beta. The remaining binding at 1 µM on RIOK3 is 31%; at ROCK2, 31%; on TNK2 it was 86%; at TRKB it was 89%.
For `O=C(CN1CCOCC1)N[C@H]1CC[C@H](Nc2cc(Cl)nn3c(-c4ccc5[nH]ncc5c4)cnc23)CC1` [compound 26], the remaining binding at 1 µM stood at 88% at AXL; 99% at EPHA4; 97% at EPHA7; 0.7% at FLT3(R834Q); 89% on MEK2; 94% at p38-beta. The remaining binding at 1 µM at RIOK3 turned out to be 32%; on ROCK2, 21%; at TNK2, 93%; on TRKB, 69%.
`CN1CCC(CNc2cc(Cl)nn3c(-c4cc5nc(Nc6ccccc6)[nH]c5cc4F)cnc23)CC1` [compound 31, 6-Chloro-3-(6-fluoro-2-(phenylamino)-1H-benzo[d]imidazol-5-yl)-N-((1-methylpiperidin-4-yl)methyl)imidazo[1,2-b]pyridazin-8-amine]: the remaining binding at 1 µM on AXL was 99%; on EPHA4, 100%; on EPHA7, 94%; at FLT3(R834Q), 100%; on MEK2 it was 80%; on p38-beta, 99%. The remaining binding at 1 µM at RIOK3 was 94%; on ROCK2, 100%; on TNK2, 100%; on TRKB, 91%.
